Reference: patent US6605595B1, “Avermectin derivatives” (The Kitasato Institute, priority 1999, dated 2003)

Key:
[1] = test system: Caenorhabditis elegans; test: Antiparasitic activity against Caenorhabditis elegans, 96 well microplate (MIC); assay type: in vivo; conditions: 20° C., observed after 24 and 48 hours
Excerpt: (§1) As model insects for simple determination of antiparasitic and insecticidal activities, those insects are desired which can be easily obtained and bred in laboratories, and have no pathogenicity to a human. Caenorhabditis elegans, an unparasitic eelworm widely used in experiments of genetics, was used as a typical steam worm, and Artemia salina used as feed for tropical fish and named Brine shrimp, was used instead of insects.
Escherichia. coli for the feed of Caenorhabditis elegans (mutant having uracil requirement) was inoculated in a seed medium for E. coli to which a small amount of uracil was added, and cultured with shaking at 27° C. for 1 day. A petri dish of 6 cm diameter was filled with 10 ml of an agar medium for eelworm proliferation, and the medium was solidified. Then 0.5 ml of the culture of E. coli was spread over the medium in the dish, and the dish was incubated at 37° C. to proliferate E. coli. A piece of the agar was collected with a platinum loop from a petri dish in which Caenorhabditis elegans successfully proliferated, and inoculated in petri dishes in which E. coli was proliferated. The petri dishes were incubated at 20° C. to proliferate Caenorhabditis elegans. Since the life of eelworm is about 2 weeks, subculture was carried out every once a week. The eelworms grown with spread on the surface of the petri dish after 3 to 5 days from subculture were used for the experiments.
The agar medium for eelworm proliferation was prepared by mixing the solutions in the following proportion: Solution A: 100 ml, Solution B: 0.1 ml, Solution C: 0.05 ml, Solution D: 0.1 ml and Solution E: 2.5 ml (without pH adjustment), and dispensing each 10 ml portion into petri dishes of 60×15 mm.
In distilled water, 2.0% of bact-trypton (DIFCO Co.), 0.55% of sodium chloride and 0.001% of uracil (SIGMA Co., pH 7.4) were dissolved, and the solution was sterilized in an autoclave at 121° C. for 20 minutes.
(§2) Each well of a 96 well microplate was filled with the solution of the test compound (methanol as a solvent), and the solvent was removed using a vacuum pump, then 250 μl of the assay medium was added to each wells (the assay medium was prepared by dissolving 7.5 mM sodium hydrogencarbonate, 7.5 mM potassium chloride, 7.5 mM calcium chloride dihydrate and 7.5 mM magnesium sulfate heptahydrate in distilled water and adding 0.01% of lecithin thereto), and then the microplate was shaken using a microplate mixer for 15 minutes. To each well, a few individuals of Caenorhabditis elegans were added by softly rubbing the surface of the agar using a toothpick, or a few individuals of Artemia salina were added together with 50 μl of the buffer. The microplate was incubated at 20° C., and then the insects were observed after 24 and 48 hours under a microscope (magnification of 40×). The results were compared to those obtained without addition of the test compound, and evaluated by 4 grades.
(§3) The evaluation results were shown by indications of 4 grades from 0 to 3.
(§4) 1: A little week movements
(§5) Of the 4 grades, Indications 3 and 2 were judged as effective, and Indications 1 and 0 as ineffective. In Table 9, the values for each compound are minimum inhibitory concentrations (MIC) which were required to give Indication 2 (or 3) for Caenorhabditis elegans or Artemia salina. In Table 9, Caenorhabditis elegans and Artemia salina are abbreviated as C.E. and A.S., respectively.

[2] = test system: Artemia salina; test: Insecticidal model activity against Artemia salina (brine shrimp), 96 well microplate (MIC); assay type: in vivo; conditions: 20° C., observed after 24 and 48 hours
Excerpt: as §1
To a buffer for Artemia salina (obtained by dissolving 0.24% of Tris, 2.57% of sodium chloride, 0.47% of magnesium chloride, 0.07% of potassium chloride, 0.02% of sodium carbonate, 0.64% of magnesium sulfate and 0.11% of calcium chloride in distilled water and adjusting the pH to 7.1 with hydrochloric acid), dried eggs of Artemia salina [Tetra Brine Shrimp Eggs, Warner Lambert Co.] were added. The noprius larvae 1 or 2 days after hatching were used for the experiments.
as §2, §3, §4, §5

[3] = test system: Lucilia cuprina larvae; test: Blowfly larvae test / development-inhibiting activity; assay type: in vivo
Experimental: Blowfly larvae test/Development-inhibiting activity
Test animals: Lucilia cuprina larvae
(§6) Solvent: Dimethylsulfoxide
20 mg of active compound are dissolved in one ml of dimethylsulfoxide. In order to prepare a suitable formulation the active compound solution is diluted with water to the concentration required in each case.
Approx. 20 Lucilia cuprina larvae are introduced into a test tube containing approx. 1 cm^3 of horse-meat and 0.5 ml of the active compound preparation to be tested. After 48 hours the activity of the active compound preparation is determined. The test tubes are transferred to beakers with a sand-covered base. After a further 2 days the test tubes are removed and the pupae counted.
The activity of the active compound preparation is assessed according to the number of flies which have hatched after 1.5 times the development period of an untreated control. 100% means that no flies have hatched: 0% means that all of the flies have hatched normally.

[4] = test system: Adult Ctenocephalides felis; test: Test on cat fleas / oral absorption; assay type: in vivo; conditions: after 24 hours
Experimental: Test on cat fleas/oral absorption
Test animals: Adult Ctenocephalides felis
Solvent: Dimethylsulfoxide (DMSO)
20 μl of this formulation are added to 4 ml of citrated cow's blood and stirred.
20 starved adult fleas (of “Georgi” species of Ctenocephalides felis) are introduced into a chamber (of a diameter of 5 cm) which is sealed with gauze at the top and bottom. A metal cylinder, whose base is sealed with parafilm, is placed on the chamber. […] Whereas the blood is heated to 37° C. a temperature of 25° C. is adjusted in the region of the flea chambers. Controls are mixed with the same volume of DMSO without the addition of any of the compounds. The test are repeated three times.
After 24 hours the mortality is determined in %.

[5] = test system: Heterakis spumosa; test: In vivo experiments with Heterakis spumosa in mice; set-up: key: 3 represents cure (no parasites detectable); 2 effective (<20% of parasites remaining); 1 trace effect (< of parasites remaining); 0 ineffective (>50% of parasites remaining); conditions: orally 4 times, mice infected with H. spumosa
Experimental: In vivo experiments with Heterakis spumosa
For the experiments male mice (strain Bor CFW, 25-30 g of body weight on receipt) were housed in Macrolon cages (3 mice per cage) and provided with water and SNIFF rat feed (10-mm pellets) ad libitum. Mice were infected with H. spumosa by oral application of 90 embryonated eggs. The eggs were obtained from female Heterakis. isolated from mouse colon 40 days after infection followed by additional three weeks incubation at 37° C. The mice were treated orally 4 times with the compounds at the dosages of 1, 0.5, 0.25, 0.1, 0.05 and 0.025 mg/kg between days 46 and 49 after infection. Compounds were suspended in Cremophor EL. Infected control mice served as untreated controls which only received Cremophor EL. Mice were killed eight days after treatment (i.e. on day 57 after infection) with carbon dioxide and cecum and colon were dissected. The number of worms which have resided in the cecum and colon were counted macroscopically. The ratios of the number of expelled worms in percent of the total number of worms was defined as level of the anthelmintic activity. Activity was evaluated on a scale 0-3 where 3 represents cure (no parasites detectable), 2 effective (<20% of parasites remaining), 1 trace effect (< of parasites remaining) and 0 ineffective (>50% of parasites remaining).

[6] = test system: Nematospiroides dubius; test: In vivo experiments with Nematospiroides dubius in mice; set-up: key: 3 represents cure (no parasites detectable); 2 effective (<20% of parasites remaining); 1 trace effect (< of parasites remaining); 0 ineffective (>50% of parasites remaining); conditions: orally 4 times, mice infected with N. dubius larvae
[7] = test system: Third larval stages of Periplaneta americana; test: Test on cockroaches, immersion process; assay type: in vivo; conditions: immersion 60 seconds, time of reading not stated (2 and 24 hours, 7 days)
Experimental: Test on cockroached—Immersion process
Test animals: Third larval stages of Periplaneta americana
as §6
20 mg of active compound are dissolved in one ml of dimethylsulfoxide. In order to prepare a suitable formulation the solution of active compound is diluted with water to the concentration required in each case.
20 ml of this preparation of active compound are pipetted into tubes (of a diameter of 1.5 cm and a height of 10 cm). 4 cockroach larvae are intoxicated with CO2 and transferred to a tube (of a diameter of 1.2 cm and a height of 9 cm) containing 3 holes (in the base and 5 cm below the upper rim). The tube is sealed with a stopper and kept at room temperature for 30 minutes until all of the cockroach larvae again display normal activity. The tube is immersed in the active compound formulation for 60 seconds, during which period all of the cockroach larvae are completely coverd. After the liquid has drained off the cockroach larvae are transferred to filter discs in cans made of PP (of a diameter of 9.7 cm and a height of 8 cm height).
After 2 and 24 hours and after 7 days the activity of the active compound formulation is determined. 100% means that all of the cockroach larvae have been destroyed; 0% means that none of the cockroach larvae have been destroyed.

[8] = 100 ppm in citrated cow's blood

CCC(C)C1OC2(C=CC1C)CC1CC(CC=C(C)C(OC3CC(OC)C(OC4CC(OC)C(=CC(=O)OC)C(C)O4)C(C)O3)C(C)C=CC=C3COC4C(O)C(C)=CC(C(=O)O1)C34O)O2 (stereo not shown) [Compound 7]
C.E. minimum inhibitory concentration (MIC) required to give Indication 2 (or 3) [1]: 0.01 µg/mL | A.S. minimum inhibitory concentration (MIC) required to give Indication 2 (or 3) [2]: 0.002 µg/mL | development-inhibiting activity (100% = no flies have hatched) ([3]; 1 ppm): 100% | development-inhibiting activity (100% = no flies have hatched) ([3]; 10 ppm): 100% | development-inhibiting activity (100% = no flies have hatched) ([3]; 100 ppm): 100% | mortality of fleas ([4]; 10 ppm in citrated cow's blood): 61% | mortality of fleas [4, 8]: 99%

CCOC(=O)C=C1C(C)OC(OC2C(C)OC(OC3C(C)=CCC4CC(CC5(C=CC(C)C(C(C)CC)O5)O4)OC(=O)C4C=C(C)C(O)C5OCC(=CC=CC3C)C45O)CC2OC)CC1OC (stereo not shown) [Compound 2]
C.E. minimum inhibitory concentration (MIC) required to give Indication 2 (or 3) [1]: 0.01 µg/mL | A.S. minimum inhibitory concentration (MIC) required to give Indication 2 (or 3) [2]: 0.01 µg/mL | anthelmintic activity score (scale 0-3) ([5]; 0.05 mg/kg): 2 (2 effective (<20% of parasites remaining)) | anthelmintic activity score (scale 0-3) ([5]; 0.1 mg/kg): 3 | anthelmintic activity score (scale 0-3) ([5]; 0.25 mg/kg): 3 | anthelmintic activity score (scale 0-3) ([5]; 0.5 mg/kg): 3 | anthelmintic activity score (scale 0-3) ([5]; 1 mg/kg): 3 | mortality of fleas ([4]; 10 ppm in citrated cow's blood): 50% | mortality of fleas [4, 8]: 100%

CCC(C)C1OC2(C=CC1C)CC1CC(CC=C(C)C(OC3CC(OC)C(OC4CC(OC)C(=CC(=O)O)C(C)O4)C(C)O3)C(C)C=CC=C3COC4C(=NO)C(C)=CC(C(=O)O1)C34O)O2 (stereo not shown) [Compound 58]
anthelmintic activity score (scale 0-3) ([6]; 0.5 mg/kg): 3 | anthelmintic activity score (scale 0-3) ([6]; 1 mg/kg): 3 | mortality of fleas ([4]; 10 ppm in citrated cow's blood): 73% | mortality of fleas [4, 8]: 100%

CCC(C)C1OC2(CC3CC(CC=C(C)C(OC4CC(OC)C(OC5CC(OC)C(=CC(=O)OC)C(C)O5)C(C)O4)C(C)C=CC=C4COC5C(O)C(C)=CC(C(=O)O3)C45O)O2)CC(O)C1C (stereo not shown) [Compound 78]
activity (100% = all of the cockroach larvae destroyed) ([7]; 1 ppm): 50% | activity (100% = all of the cockroach larvae destroyed) ([7]; 10 ppm): 50% | activity (100% = all of the cockroach larvae destroyed) ([7]; 100 ppm): 100%

CCC(C)C1OC2(C=CC1C)CC1CC(CC=C(C)C(OC3CC(OC)C(OC4CC(OC)C(=CCOC(=O)c5cccnc5)C(C)O4)C(C)O3)C(C)C=CC=C3COC4C(O)C(C)=CC(C(=O)O1)C34O)O2 (stereo not shown) [Compound 21]
C.E. minimum inhibitory concentration (MIC) required to give Indication 2 (or 3) [1]: 0.01 µg/mL | A.S. minimum inhibitory concentration (MIC) required to give Indication 2 (or 3) [2]: 0.002 µg/mL | development-inhibiting activity (100% = no flies have hatched) ([3]; 1 ppm): 100% | development-inhibiting activity (100% = no flies have hatched) ([3]; 10 ppm): 100% | development-inhibiting activity (100% = no flies have hatched) ([3]; 100 ppm): 100%

CCC(C)C1OC2(C=CC1C)CC1CC(CC=C(C)C(OC3CC(OC)C(OC4CC(OC)C(=CC=CC(=O)O)C(C)O4)C(C)O3)C(C)C=CC=C3COC4C(O)C(C)=CC(C(=O)O1)C34O)O2 (stereo not shown) [Compound 66]
activity (100% = all of the cockroach larvae destroyed) ([7]; 1 ppm): 75% | activity (100% = all of the cockroach larvae destroyed) ([7]; 10 ppm): 100% | activity (100% = all of the cockroach larvae destroyed) ([7]; 100 ppm): 100%

CCC(C)C1OC2(C=CC1C)CC1CC(CC=C(C)C(OC3CC(OC)C(OC4CC(OC)C(=CCOC5CCCCO5)C(C)O4)C(C)O3)C(C)C=CC=C3COC4C(O)C(C)=CC(C(=O)O1)C34O)O2 (stereo not shown) [Compound 31]
C.E. minimum inhibitory concentration (MIC) required to give Indication 2 (or 3) [1]: 0.05 µg/mL | A.S. minimum inhibitory concentration (MIC) required to give Indication 2 (or 3) [2]: 0.01 µg/mL | anthelmintic activity score (scale 0-3) ([5]; 0.1 mg/kg): 2 (2 effective (<20% of parasites remaining)) | anthelmintic activity score (scale 0-3) ([5]; 0.25 mg/kg): 2 (2 effective (<20% of parasites remaining)) | anthelmintic activity score (scale 0-3) ([5]; 0.5 mg/kg): 3 | anthelmintic activity score (scale 0-3) ([5]; 1 mg/kg): 3
